Test system: SARS-CoV-2 variants of concern (VOC)
Assay type: cell-based
Conditions: plaque assay

mycolactone [MLN]
IC50 fold lower than Remdesivir: 9-18 fold

From patent publication US20240041823A1, “USE OF MYCOLACTONE (MLN) AND DERIVATIVES THEREOF FOR TREATMENT OF MICROBIAL INFECTIONS” (priority 2022, published 2024)
